From ChEMBL document CHEMBL1135361, “Potent in vitro methicillin-resistant Staphylococcus aureus activity of 2-(1H-indol-3-yl)tetrahydroquinoline derivatives” (2002)
≈ marks a conversion by molar mass, not a printed value.

Assays:
Staphylococcus aureus = assay: Minimum inhibitory concentration against methicillin-resistant Staphylococcus aureus; type: functional
Enterococcus faecium = assay: Minimum inhibitory concentration against vancomycin-resistant Enterococcus faecium (VRE); type: functional
[1] = Staphylococcus aureus, read-out: MIC

| SMILES | MIC (Staphylococcus aureus; [1]) [µg/mL] | MIC (Enterococcus faecium) [µg/mL] | MIC (Staphylococcus aureus) [µg/mL] |
| --- | --- | --- | --- |
| OCC#Cc1ccc2c(c1)[C@H]1OCC[C@H]1[C@@H](c1c[nH]c3ccc(Br)cc13)N2 | 3.13 (≈ 7.39 µM) | – | – |
| CC(C)(C)OC(=O)N1CC[C@H]2[C@@H](c3c[nH]c4ccc(Br)cc34)Nc3ccc(Cl)cc3[C@H]21 | 0.78 (≈ 1.55 µM) | – | – |
| Fc1ccc2c([C@H]3Nc4ccc(Cl)cc4[C@H]4OCC[C@@H]34)c[nH]c2c1 | 6.25 (≈ 18.2 µM) | – | – |
| CN1c2ccc(Cl)cc2[C@H]2OCC[C@H]2[C@H]1c1c[nH]c2ccc(Br)cc12 | > 25 | – | – |
| FC(F)(F)c1cccc2c1N[C@H](c1c[nH]c3ccc(Br)cc13)[C@@H]1CCO[C@H]21 | 0.78 (≈ 1.78 µM) | – | – |
| Clc1ccc2c(c1)N(Cl)[C@H](c1c[nH]c3ccc(Br)cc13)[C@@H]1CCO[C@H]21 | 1.56 (≈ 3.56 µM) | – | – |
| Fc1cccc2c1N[C@H](c1c[nH]c3ccc(Br)cc13)[C@@H]1CCO[C@H]21 | 0.78 (≈ 2.01 µM) | – | – |
| COc1cccc2c1N[C@H](c1c[nH]c3ccc(Br)cc13)[C@@H]1CCO[C@H]21 | 1.56 (≈ 3.91 µM) | – | – |
| Clc1ccc2c(c1)[C@H]1NCC[C@H]1[C@@H](c1c[nH]c3ccc(Cl)cc13)N2 | 3.13 (≈ 8.74 µM) | > 25 | – |
| Cc1[nH]c2ccccc2c1[C@H]1Nc2ccc(Cl)cc2[C@H]2OCC[C@@H]12 | > 25 | – | – |
| Clc1ccc2c(c1)[C@H]1OCC[C@H]1[C@H](c1c[nH]c3ccccc13)N2 | 6.25 (≈ 19.2 µM) | – | – |
| Clc1ccc2c(c1)[C@H]1OCC[C@H]1[C@@H](c1c[nH]c3ccc(Cl)cc13)N2 | 0.78 (≈ 2.17 µM) | – | – |
| Clc1ccc2c(c1)[C@H]1OCC[C@H]1[C@H](c1c[nH]c3ccc(Br)cc13)N2 | 3.13 (≈ 7.76 µM) | – | – |
| Brc1ccc2[nH]cc([C@H]3Nc4c(I)cccc4[C@H]4OCC[C@@H]34)c2c1 | < 0.39 | – | – |
| Brc1ccc2[nH]cc([C@H]3Nc4ccc(CCCN5CCCCC5)cc4[C@H]4OCC[C@@H]34)c2c1 | 12.5 (≈ 25.3 µM) | – | – |
| CC(C)(C)OC(=O)N1CC[C@@H]2[C@H]1c1cc(Cl)ccc1N[C@H]2c1c[nH]c2ccc(Br)cc12 | 1.56 (≈ 3.1 µM) | – | – |
| Clc1ccc2c(c1)[C@H]1OCC[C@H]1[C@H](c1c[nH]c3ccc(Cl)cc13)N2 | 3.13 (≈ 8.71 µM) | – | – |
| Clc1cc(Cl)c2c(c1)[C@H]1OCC[C@H]1[C@@H](c1c[nH]c3ccc(Br)cc13)N2 | 1.56 (≈ 3.56 µM) | – | – |
| Clc1ccc2c(c1)[C@H]1OCC[C@H]1[C@@H](c1c[nH]c3ccccc13)N2 | > 25 | – | – |
| NCc1cc(-c2c[nH]c3ccc(Br)cc23)nc2cc(Cl)ccc12 | 0.78 (≈ 2.02 µM) | 1.56 (≈ 4.03 µM) | – |
| Clc1ccc2ccc(-c3c[nH]c4ccc(Br)cc34)nc2c1 | 0.6 (≈ 1.68 µM) | > 25 | – |
| Fc1ccc2c([C@@H]3Nc4ccc(Cl)cc4[C@H]4OCC[C@H]43)c[nH]c2c1 | 12.5 (≈ 36.5 µM) | – | – |
| Brc1ccc2[nH]cc([C@H]3Nc4ccc(C#CCN5CCCCC5)cc4[C@H]4OCC[C@@H]34)c2c1 | 1.56 (≈ 3.18 µM) | – | – |
| Fc1ccc2c(c1)[C@H]1OCC[C@H]1[C@@H](c1c[nH]c3ccc(Br)cc13)N2 | 6.25 (≈ 16.1 µM) | – | – |
| Clc1ccc2c(c1)[C@H]1NCC[C@H]1[C@H](c1c[nH]c3ccc(Cl)cc13)N2 | 6.25 (≈ 17.4 µM) | > 25 | – |
| Clc1ccc2c(c1)[C@H]1OCC[C@H]1[C@@H](c1c[nH]c3ccc(Br)cc13)N2 (stereo in doubt) | – | – | 0.31 (≈ 0.768 µM) |
| Clc1ccc2c(c1)[C@H]1OCC[C@H]1[C@@H](c1c[nH]c3ccc(Br)cc13)N2 (stereo in doubt; 9) | – | – | 3.13 (≈ 7.75 µM) |
